Patent US20130252814A1, “SYNERGISTIC HERBICIDAL COMPOSITION CONTAINING PENOXSULAM AND PRETILACHLOR” (DOW AGROSCIENCES LLC, priority 2011, published 2013)

System: ECHCG - Echinochloa crus-galli (barnyardgrass)
Assay: Preemergence herbicidal activity of mixtures under field conditions, seeded rice, field trial Taiwan
Format: in vivo
Procedure: A field trial was conducted in rice in Taiwan using standard herbicide small plot research methodology. Plot size was 1 meter (m) wide by 1 m long. There were 3 replicates per treatment. Soil type was medium texture. Rice was sown by hand direct dry seeding as per normal local cultural practices. The rice crop was grown using normal cultural practices for fertilization, watering, flooding and maintenance to ensure good growth of the crop and the weeds. Treatments were applied by backpack sprayer using compressed air at 30 pounds per square inch (psi) spray pressure. Spray tips were Flat Fan Teejet nozzles, delivering a spray volume of 300 liters per hectare (L/ha). For each treatment, the appropriate formulated product amount to treat the plot area, to achieve the desired application rate, based on unit area of application (hectare), was calculated, measured, and mixed in water prior to applying with the backpack sprayer. Treatments were rated as compared to the untreated control plots. The treated plots and control plots were rated blind at various intervals after application. Ratings were based of Percent (%) Visual weed control, where 0 corresponds to no injury and 100 corresponds to complete kill. Colby's equation was used to determine the herbicidal effects expected from the mixtures (Colby, S. R. Calculation of the synergistic and antagonistic response of herbicide combinations. Weeds 1967, 15, 20-22). The following equation was used to calculate the expected activity of mixtures containing two active ingredients, A and B: Expected=A+B−(A×B/100) A=observed efficacy of active ingredient A at the same concentration as used in the mixture and B=observed efficacy of active ingredient B at the same concentration as used in the mixture.

## COc1cnc(OC)n2nc(NS(=O)(=O)c3c(OCC(F)F)cccc3C(F)(F)F)nc12 [Penoxsulam, 2-(2,2-difluoroethoxy)-N-(5,8-dimethoxy-[1,2,4]triazolo[1,5-c]pyrimidin-2-yl)-6-(trifluoromethyl)benzenesulfonamide]
7 days after preemergence application, penoxsulam 7.5 gr ai/ha
  % Control ECHCG Obs: 47%
7 days after preemergence application, penoxsulam 23 gr ai/ha
  % Control ECHCG Obs: 95%
28 days after preemergence application, penoxsulam 7.5 gr ai/ha
  % Control ECHCG Obs: 7%
28 days after preemergence application, penoxsulam 15 gr ai/ha
  % Control ECHCG Obs: 80%

## CCCOCCN(C(=O)CCl)c1c(CC)cccc1CC [Pretilachlor, 2-chloro-N-(2,6-diethylphenyl)-N-(2-propoxyethyl)acetamide]
7 days after preemergence application, pretilachlor 270 gr ai/ha
  % Control ECHCG Obs: 3%
7 days after preemergence application, pretilachlor 540 gr ai/ha
  % Control ECHCG Obs: 3%
28 days after preemergence application, pretilachlor 270 gr ai/ha
  % Control ECHCG Obs: 0%
28 days after preemergence application, pretilachlor 540 gr ai/ha
  % Control ECHCG Obs: 0%
